Source: US20080004266A1, “Method for treating proliferative disorders associated with protooncogene products” (priority 2006, published 2008)
Entries after “also recorded” stand apart in the source; their conditions may differ.

Columns and labels:
c-kit [1] = assay: FACS-based c-kit degradation assay in HEL92.1.7 cells; assay type: cell-based; conditions: about 18 h, compounds at 0.5 and 0.05 μM, 17-AAG at 0.5 μM
Experimental: (§1) Two leukemia cell lines, HEL92.1.7 and Kasumi-1, were used for testing c-kit degradation induced by Hsp90 inhibitors of the invention. […] The cells were collected and centrifuged (SORVALL RT 6000D) at 1200 rpm for 5 min. The supernatants were discarded, and the cells were washed one time with 1×PBS. After centrifugation the cells were stained with FITC conjugated c-kit antibody (MBL International, Cat# K0105-4) in […] 1×PBS at 4° C. for 1 h. The samples were read and analysized with FACSCalibur flow cytometer (Becton Dicknson).

[2] = test system: c-Kit tyrosine kinase receptor (N822K mutation); assay: Western blot analysis of c-Kit in Kasumi-1 cells; assay type: cell-based, human; conditions: 100 nM and 400 nM
From the text: The results of the FACS analysis were confirmed with Western blot analysis (see FIG. 5). […] In contrast, 17-AAG had no effect of c-Kit protein levels.

c-kit [3] = assay: FACS-based c-kit degradation assay in Kasumi-1 cells; assay type: cell-based, human; conditions: about 18 h, compounds at 0.5 and 0.05 μM, 17-AAG at 0.5 μM
Experimental: as §1

phosphorylated Bcr-Abl = assay: Degradation of Bcr-Abl in KU812 cells (Western blot); assay type: cell-based; conditions: 18 hours
Experimental: KU812 chronic myeloid leukemia cells (ATCC) (2×10^6 cells), which harbor the Philadelphia chromosome that produces Bcr-Abl tyrosine kinase, were treated (0.1 μM and 1.0 μM) with either Compound 226, 17-AAG or 17-DMAG. After 18 hours, the cells were lysed with 1× lysis buffer, and a western blot was perform using anti-BCR-ABL antibody to detect phosphorylated Bcr-Abl.

A375 cells (B-raf V600E) = assay: Cell survival in A375 melanoma cells (Cell Counting Kit-8); assay type: cell-based, human; conditions: 72 hours
Experimental: Human melanoma cell line, A375 (2×10^6 cells), which contains the V600E mutation in the B-raf protein that confers constitutive […] kinase activity, was obtained from American Type Culture Collection. A375 cells (20,000 cells/well) were cultured in 96-well plates and maintained at 37° C. for several hours. The cells were incubated at 37° C. for 72 hours with various concentrations of compound 226, 17AAG or 17DMAG. 17AAG and 17DMAG are Hsp90 inhibitors that are currently in clinical trials and are used here as positive controls for Hsp90 inhibition. Cell survival was measured with Cell Counting Kit-8 (Dojindo Laboratories, Cat # CK04).

[4] = test system: Karpas-299 cells (NPM-ALK); assay: Cell survival in Karpas-299 cells (Cell Counting Kit-8); assay type: cell-based, human; conditions: 72 hours
Experimental: Growth of this tumor cell line is dependent upon the expression of the NPM-ALK fusion protein. Karpas-299 cells (20,000 cells/well) were cultured in 96-well plates and maintained at 37° C. for several hours. The cells were incubated at 37° C. for 72 hours with various concentrations of compound 226 of the invention, 17AAG, and 17DMAG. 17AAG and 17DMAG are Hsp90 inhibitors that are currently in clinical trials and are used here as positive controls for Hsp90 inhibition. Cell survival was measured with Cell Counting Kit-8 (Dojindo Laboratories, Cat # CK04).

[5] = test system: human tumor cell line MDA-MB-435S; assay: MDA-MB-435S nude mouse xenograft model; assay type: in vivo; conditions: nude mice, 300 mg/kg body weight IP, 5 times per week for 3 weeks, versus vehicle
Experimental: FBS was obtained from Sigma-Aldrich Corp. (St. Louis, Mo., USA), and all other reagents were obtained from Invitrogen Corp. (Carlsbad, Calif., USA). Approximately 4−5×10 (6) cells that had been cryopreserved in liquid nitrogen were rapidly thawed at 37° C. and transferred to a 175 cm^2 tissue culture flask containing 50 ml of growth media and then incubated at 37° C. in a 5% CO2 incubator. The growth media was replaced every 2-3 days until the flask became 90% confluent, typically in 5-7 days. To passage and expand the cell line, a 90% confluent flask was washed with 10 ml of room temperature phosphate buffered saline (PBS) and the cells were disassociated by adding 5 ml 1× Trypsin-EDTA (Invitrogen) and incubating at 37° C. until the cells detached from the surface of the flask. To inactivate the trypsin, 5 ml of growth media was added and then the contents of the flask were centrifuged to pellet the cells. The supernatant was aspirated and the cell pellet was resuspended in 10 ml of growth media and the cell number determined using a hemocytometer. […]
Six to eight week old, female Crl:CD-1-nuBR (nude) mice were obtained from Charles River Laboratories (Wilmington, Mass., USA). […] Tumor volumes (V) were calculated by caliper measurement of the width (W), length (L) and thickness (T) of tumors using the following formula: V=[…]×(L×W×T). […]

MV 4-11 cells (FLT3-ITD) = assay: Cell survival in MV-4-11 cells (Cell Counting Kit-8); assay type: cell-based, human; conditions: Homo sapiens, MV4-11, 72 hours
Experimental: Human acute myelogenous leukemia (AML) cell line, MV 4-11 (ATCC #CRL-9591), was obtained from the American Type Culture Collection (ATCC; Manassas, Va., USA). Growth of this tumor cell line is dependent upon the expression of an activated form of the FLT3 tyrosine kinase receptor carrying an internal tandem duplication (ITD) mutation, which is the most common molecular defect associated with AML (K. W. Yee et al., Blood 100:2941-2949, 2002). MV 4-11 cells (20,000 cells/well) were cultured in 96-well plates and maintained at 37° C. for several hours. The cells were incubated at 37° C. for 72 hours with various concentrations of compounds of the invention, 17AAG, or DMAG. 17AAG and DMAG are Hsp90 inhibitors that are currently in clinical trials and are used here as positive controls for Hsp90 inhibition. Cell survival was measured with Cell Counting Kit-8 (Dojindo Laboratories, Cat # CK04).

[6] = test system: Kasumi-1 cells (c-Kit N822K); assay: Cell survival in Kasumi-1 cells (Cell Counting Kit-8); assay type: cell-based, human; conditions: Homo sapiens, 72 hours
Experimental: Kasumi-1 cells (20,000 cells/well) were cultured in 96-well plates and maintained at 37° C. for several hours. […] 17AAG and DMAG are Hsp90 inhibitors that are currently in clinical trials and are used here as positive controls for Hsp90 inhibition. […] Cell survival was measured with Cell Counting Kit-8 (Dojindo Laboratories, Cat # CK04).

K562 cells (Bcr-Abl) = assay: Cell survival in K562 cells (Cell Counting Kit-8); assay type: cell-based, human; conditions: Homo sapiens, 72 hours
Experimental: Growth of this tumor cell line is dependent upon the expression of the Bcr-Abl fusion protein (C. Gambacarti-Passerini et al., Blood Cells Mol. Dis. 23:380-394, 1997). K562 cells (20,000 cells/well) were cultured in 96-well plates and maintained at 37° C. for several hours. […] 17AAG, DMAG, and Radicical are Hsp90 inhibitors that are currently in clinical trials and are used here as positive controls for Hsp90 inhibition. […] Cell survival was measured with Cell Counting Kit-8 (Dojindo Laboratories, Cat # CK04).

C=CCNC1=C2C[C@@H](C)C[C@H](OC)[C@H](O)[C@@H](C)/C=C(\C)[C@H](OC(N)=O)[C@@H](OC)/C=C\C=C(/C)C(=O)NC(=CC1=O)C2=O [Compound 17-AAG, 17-allylamino-17-demethoxygeldanamycin, reference compound]
c-kit degradation (c-kit positive population, FACS) (c-kit [1]): could not induce c-kit degradation | c-Kit protein levels (Western blot) [2]: no effect | c-kit degradation (c-kit positive population, FACS) (c-kit [3]): could not induce c-kit degradation

CO[C@H]1/C=C\C=C(/C)C(=O)NC2=CC(=O)C(NCCN(C)C)=C(C[C@@H](C)C[C@H](OC)[C@H](O)[C@@H](C)/C=C(\C)[C@@H]1OC(N)=O)C2=O [Compound 17-DMAG]
degradation of phosphorylated Bcr-Abl (phosphorylated Bcr-Abl; 0.1 μM): partial degradation | degradation of phosphorylated Bcr-Abl (phosphorylated Bcr-Abl; 1.0 μM): complete degradation

CO[C@H]1/C=C\C=C(/C)C(=O)NC2=CC(=O)C(NCCN(C)C)=C(C[C@@H](C)C[C@H](OC)[C@H](O)[C@@H](C)/C=C(\C)[C@@H]1OC(N)=O)C2=O [Compound 17DMAG, 17-(2-dimethylaminoethyl-1)amino-17-desmethoxygeldanamycin]
IC50 (A375 cells (B-raf V600E)): 4 nM | IC50 [4]: 62 nM

CCc1cc(-c2nnc(S)n2-c2cccc3ccccc23)c(O)cc1O [Compound 49, 3-(2,4-Di-hydroxy-5-ethyl-phenyl)-4-(naphthalen-1-yl)-5-mercapto-triazole]
toxicity (effect on body weights) [5]: not toxic; also recorded: not associated with significant toxicity

CCc1cc(-c2nnc(S)n2-c2ccc(OC)c3c2ccn3C(C)C)c(O)cc1O [Compound 188, 3-(2,4-Dihydroxy-5-ethyl-phenyl)-4-(1-isopropyl-7-methoxy-indol-4-yl)-5-mercapto-[1,2,4]triazole]
IC50 (MV 4-11 cells (FLT3-ITD)): 25 nM | IC50 [6]: 72 nM | c-kit degradation (c-kit positive population, FACS) (c-kit [1]): induced c-kit degradation | c-kit degradation (c-kit positive population, FACS) (c-kit [3]): induced c-kit degradation

CCCn1ccc2c(-n3c(S)nnc3-c3cc(C4CC4)c(O)cc3O)ccc(OC)c21 [Compound 205, 3-(2,4-di-hydroxy-5-cyclopropyl-phenyl)-4-(1-propyl-7-methoxy-indol-4-yl)-5-mercapto-[1,2,4] triazole]
IC50 (MV 4-11 cells (FLT3-ITD)): 49 nM

COc1ccc(-n2c(S)nnc2-c2cc(C(C)C)c(O)cc2O)c2ccn(C(C)C)c12 [Compound 208, 3-(2,4-di-hydroxy-5-isopropyl-phenyl)-4-(1-isopropyl-7-methoxy-indol-4-yl)-5-mercapto-[1,2,4] triazole]
IC50 (MV 4-11 cells (FLT3-ITD)): 20 nM | IC50 [6]: 49 nM

CC(C)c1cc(-c2nnc(S)n2-c2ccc3c(ccn3C)c2)c(O)cc1O [Compound 221, 3-(2,4-di-hydroxy-5-isopropyl-phenyl)-4-(N-methyl-indol-5-yl)-5-mercapto-[1,2,4] triazole]
c-kit degradation (c-kit positive population, FACS) (c-kit [1]): induced c-kit degradation | c-Kit protein levels (Western blot) [2]: induced the degradation of c-Kit | c-kit degradation (c-kit positive population, FACS) (c-kit [3]): induced c-kit degradation

C[C@@H]1C[C@H]2O[C@@H]2/C=C\C=C\C(=O)Cc2c(Cl)c(O)cc(O)c2C(=O)O1 [Radicical, Radicicol]
IC50 (K562 cells (Bcr-Abl)): 331 nM
